Test results taken from US8889671B2, “Compounds and methods for treating bacterial infections” (AstraZeneca AB, priority 2013, dated 2014).
In brackets after ≈: the same amount, converted by molar mass. Like-named read-outs stand apart in the source and are kept apart here.

Legend:
[1] = biological target: Escherichia coli DNA gyrase A/B tetramer (Escherichia coli (strain K12), UniProt P0AES4+P0AES6); assay: DNA gyrase supercoiling activity fluorescence polarisation assay; assay type: biochemical; details: Eco Gyr FP Mean IC50, E. coli DNA gyrase supercoiling, 0.3 mM ATP
Method in brief: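 IC50 derived by nonlinear regression from BODIPY-FL fluorescence anisotropy, read 60 min after quenching with labelled triplex-forming probe (pH 3.5). Reaction: 5 nM gyrase tetramer, 130 micrograms/mL relaxed plasmid, 0.3 mM ATP, 4 mM MgCl2, pH 7.5, typically 30 min at ambient temperature, 5-10 compound concentrations.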

[2] = Plasma pharmacokinetics in S. pyogenes infected mice; assay type: in vivo; details: mouse, ip, with ABT
Protocol: Groups of satellite mice infected with S. pyogenes, as described above, were used for determining plasma concentrations. Dosing started 2 hours after infection and whole blood samples were taken at 0.5, 1, 2, 4, 6, 8, 12 and 24 h. Mice from the satellite PK study were euthanized by inhaled 5% isofluorane at specified time points post-treatment, mice were bled immediately by cardiac puncture. Heparinised blood samples were separated by centrifugation for five minutes at 13200 rpm. Plasma samples were stored at minus 80° C. before transfer to the client for analysis.
For the PK arm of the study, 3 mice per time point per unit dose were used. Due to unintended changes in the final work order, the 80 and 160 mg/kg dosing groups initially were administered Example 5 without prior treatment with aminobenzotriazole. Once this was realised, the remaining mice were re-distributed across the dosing groups and group size was reduced to two mice per time point.
Biological samples containing Example 5 were extracted using protein precipitation. To one volume of sample, 5 volumes of acetonitrile containing the internal standard (Glyburide) were added. The mixture was then mixed and the plate was centrifuged at 3200 rpm for 5 min. A 200 μL volume of the supernatant was dried down and, reconstituted in mobile phase and the mixture was injected onto liquid chromatography-mass spectrometry (LC-MS). A Sciex API 4000, controlled by Analyst v1.4.2, was used for the acquisition of the data and the quantification of Example 5.
The plasma profile for each dose group was obtained by calculating the average plasma concentration of compound in each of the two to three animals per time point. The area under the plasma concentration time curve from zero to infinity (AUC); maximum plasma drug concentration (Cmax); time to reach maximum concentration (tmax); and plasma half-life (t1/2) for each dose group was determined by non-compartmental analysis (WinNonLin 5.2, Pharsight). The non-compartmental Model 200 was used in the analysis.

[3] = tested on: Citrobacter koseri; assay: In vitro antibacterial activity of Example 5 (MIC); assay type: cell-based
[4] = tested on: Klebsiella pneumoniae; assay: In vitro antibacterial activity of Example 5 (MIC); assay type: cell-based
[5] = tested on: Moraxella catarrhalis; assay: In vitro antibacterial activity of Example 5 (MIC); assay type: cell-based; details: ATCC43617; Moraxella catarrhalis (ATCC 43617)
[6] = tested on: Pseudomonas aeruginosa; assay: In vitro antibacterial activity of Example 5 (MIC); assay type: cell-based
[7] = tested on: Serratia marcescens; assay: In vitro antibacterial activity of Example 5 (MIC); assay type: cell-based
[8] = tested on: Staphylococcus aureus; assay: In vitro antibacterial activity of Example 5 (MIC); assay type: cell-based
[9] = tested on: Staphylococcus epidermidis; assay: In vitro antibacterial activity of Example 5 (MIC); assay type: cell-based
[10] = tested on: Streptococcus constellatus; assay: In vitro antibacterial activity of Example 5 (MIC); assay type: cell-based
[11] = tested on: Streptococcus pyogenes; assay: In vitro antibacterial activity of Example 5 (MIC); assay type: cell-based; details: for MIC: Streptococcus pyogenes (isolates not further specified)
[12] = tested on: Streptococcus pneumoniae; assay: In vitro antibacterial activity of Example 5 (MIC); assay type: cell-based
[13] = tested on: Propionibacterium acnes; assay: In vitro antibacterial activity of Example 5 against anaerobes (MIC, agar dilution); assay type: cell-based; details: Cutibacterium acnes
[14] = tested on: Legionella pneumophila; assay: microbe, parasite or virus in culture; assay type: cell-based
[15] = tested on: S. pyogenes ARC838; assay: Emergence of resistance with serial passage; assay type: cell-based, Streptococcus pyogenes; details: after twenty passages with Example 5, S. pyogenes ARC838
[16] = tested on: Staphylococcus aureus, Streptococcus pneumoniae, and S. pyogenes strains with characterized gyrase and topoisomerase mutations; assay type: cell-based; details: clinical isolates with mutations in gyrA, gyrB, ParC or ParE
[17] = tested on: Streptococcus pyogenes ATCC12384; assay: S. pyogenes neutropenic mouse thigh infection model, PK/PD
[18] = S. pyogenes ATCC12384, neutropenic mouse thigh

C[C@@H]1CN2c3c(cc4c(N5C(=O)OC[C@@H]5C)noc4c3F)CC3(C(=O)NC(=O)NC3=O)[C@H]2[C@H](C)O1 [Example 5, (2R,4S,4aS)-11-Fluoro-2,4-dimethyl-8-[(4S)-4-methyl-2-oxo-1,3-oxazolidin-3-yl]-1,2,4,4a-tetrahydro-2′H,6H-spiro[1,4-oxazino[4,3-a][1,2]oxazolo[4,5-g]quinoline-5,5′-pyrimidine]-2′,4′,6′(1′H,3′H)-trione]
IC50 [1]: 169 nM | AUC(0-inf) ([2]; nominal dose 10 mg/kg (measured 4.1)): 32.6 µg·h/mL | AUC(0-inf) ([2]; nominal dose 40 mg/kg (measured 25.4)): 109 µg·h/mL | AUC(0-inf) ([2]; nominal dose 60 mg/kg (measured 44.2)): 153 µg·h/mL | AUC(0-inf) ([2]; nominal dose 80 mg/kg (measured 66.2)): 251 µg·h/mL | AUC(0-inf) ([2]; nominal dose 160 mg/kg (measured 142.0)): 614 µg·h/mL | MIC [3]: 64 µg/mL (≈ 131 µM) | MIC ([4]; ATCC700603, Klebsiella pneumoniae (ATCC 700603 CLSI QC Strain)): > 64 µg/mL | MIC ([4]; Klebsiella pneumoniae (In vivo strain)): 16 µg/mL (≈ 32.8 µM) | MIC ([4]; Klebsiella pneumoniae (isolates not further specified)): 64 µg/mL (≈ 131 µM) | MIC [5]: 0.125 µg/mL (≈ 0.256 µM) | MIC ([6]; PAO1, Pseudomonas aeruginosa (PAO1)): > 64 µg/mL | MIC ([6]; PAO1, Pseudomonas aeruginosa (PAO1, mexABCDXY-)): 2 µg/mL (≈ 4.1 µM) | MIC ([6]; Pseudomonas aeruginosa (clinical isolate)): > 64 µg/mL | MIC [7]: > 64 µg/mL | MIC90 ([8]; 100 strains of S. aureus): 0.25 µg/mL (≈ 0.513 µM) | MIC ([8]; ATCC29213, Staphylococcus aureus (ATCC 29213, CLSI QC Strain)): 0.125 µg/mL (≈ 0.256 µM) | MIC ([8]; ATCC29213, Staphylococcus aureus + 2%Human albumin (ATCC 29213, CLSI QC Strain)): 0.25 µg/mL | MIC ([8]; MRSA / USA100, Staphylococcus aureus (MRSA, USA100)): 0.125 µg/mL (≈ 0.256 µM) | MIC ([8]; MRSA, Staphylococcus aureus (MRSA)): 0.5 µg/mL (≈ 1.03 µM) | MIC ([8]; MRSA, Staphylococcus aureus (MRSA, fluoroquinolone-R)): 0.25 µg/mL (≈ 0.513 µM) | MIC ([8]; MSSA, Staphylococcus aureus (MSSA, in vivo strain)): 0.125 µg/mL (≈ 0.256 µM) | MIC ([8]; Staphylococcus aureus (In vivo Strain)): 0.25 µg/mL (≈ 0.513 µM) | MIC ([8]; VISA, Staphylococcus aureus (Mu3, VISA)): 0.25 µg/mL (≈ 0.513 µM) | MIC ([9]; Staphylococcus epidermidis (MRSE)): 0.25 µg/mL (≈ 0.513 µM) | MIC90 ([9]; Staphylococcus epidermidis, S. epidermidis, n=37): 0.25 µg/mL (≈ 0.513 µM) | MIC [10]: 0.03 µg/mL (≈ 0.0615 µM) | MIC [11]: 0.25 µg/mL (≈ 0.513 µM) | MIC ([11]; Streptococcus pyogenes, read-out: MIC): 0.125 µg/mL (≈ 0.256 µM) | MIC90 ([11]; Streptococcus pyogenes, 100 strains of S. pyogenes): 0.25 µg/mL (≈ 0.513 µM) | MIC50 ([11]; Streptococcus pyogenes, 100 strains of S. pyogenes, read-out: MIC50 (MICH [sic])): 0.125 µg/mL (≈ 0.256 µM) | MIC ([12]; Streptococcus pneumonia (Penicillin, -erythromycin- and fluoroquinolone-resistant)): 0.25 µg/mL (≈ 0.513 µM) | MIC ([12]; Streptococcus pneumoniae, ATCC49619, Streptococcus pneumonia (ATCC 49619, CLSI QC Strain), read-out: MIC): 0.25 µg/mL (≈ 0.513 µM) | MIC90 ([12]; Streptococcus pneumoniae, 100 strains of S. pneumoniae): 0.25 µg/mL (≈ 0.513 µM) | MIC50 ([12]; Streptococcus pneumoniae, 100 strains of S. pneumoniae, read-out: MIC50 (MICH [sic])): 0.125 µg/mL (≈ 0.256 µM) | MIC ([12]; Streptococcus pneumoniae, Streptococcus pneumonia (In vivo Strain), read-out: MIC): 0.25 µg/mL (≈ 0.513 µM) | MIC [13]: 2 µg/mL (≈ 4.1 µM) | MIC90 [14]: 0.06 µg/mL (≈ 0.123 µM) | MIC range ([14]; n=11): 8 to 60 ng/mL | decrease in susceptibility over the starting culture [15]: 8 fold | cross resistance [16]: No cross resistance | efficacy in vivo ([17]; S. pyogenes ATC12384 in neutropenic mice): dose-dependent efficacy | AUC value for 1-log reduction [17, 18]: 76 μg·h/mL | AUC value for 2-log reduction [17, 18]: 95 μg·h/mL | AUC value for stasis [17, 18]: 60 µg·h/mL | AUC/MIC (free), EC50 ± SEM (% CV) ([17]; S. pyogenes neutropenic dose response): 151 ± 7 (5%)
